Nine molecules from patent publication US5942532A, “2-substituted phenyl-benzimidazole antibacterial agents” (Ortho Pharmaceutical Corporation, priority 1997, dated 1999) can be followed below.

Molecules are shown by their SMILES. Read-outs that look alike come from different tables or passages of the source.

In this assay the target is T1, Kinase A and Spo0F (Bacillus subtilis, UniProt P16497).
T1 construct: made in house; host or cells: recombinant E. coli
T1 sequence (P16497 1-606): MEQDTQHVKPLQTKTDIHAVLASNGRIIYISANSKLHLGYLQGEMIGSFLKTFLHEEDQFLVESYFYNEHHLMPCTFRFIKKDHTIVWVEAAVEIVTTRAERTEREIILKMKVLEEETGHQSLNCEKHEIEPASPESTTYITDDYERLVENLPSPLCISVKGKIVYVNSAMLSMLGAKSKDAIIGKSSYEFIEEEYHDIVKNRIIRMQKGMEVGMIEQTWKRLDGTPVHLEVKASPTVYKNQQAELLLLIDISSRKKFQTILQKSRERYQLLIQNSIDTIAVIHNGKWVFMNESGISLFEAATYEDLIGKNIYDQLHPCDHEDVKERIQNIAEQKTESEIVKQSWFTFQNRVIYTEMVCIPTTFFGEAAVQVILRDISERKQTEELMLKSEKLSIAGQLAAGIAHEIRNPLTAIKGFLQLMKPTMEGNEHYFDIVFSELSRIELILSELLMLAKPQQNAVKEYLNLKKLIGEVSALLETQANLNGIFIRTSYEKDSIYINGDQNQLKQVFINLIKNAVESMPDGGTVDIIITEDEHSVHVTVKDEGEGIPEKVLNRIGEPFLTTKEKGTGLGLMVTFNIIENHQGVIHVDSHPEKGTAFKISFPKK
Description: Autophosphorylation of Kinase A and Transphosphorylation of Spo0F Assay (HPK in vitro assay). To be noted: Table 6, KinA/Spo0F phosphorylation. The class given is biochemical. As to the method:
Autophosphorylation of Kinase A and Transphosphorylation of Spo0F Assay
To study the effect of the compounds of the present invention on the signal transduction process in bacteria, the inhibiting effect of the compounds on the sporulation operon proteins Kinase A and Spo0F was examined. Specifically, the inhibition of autophosphorylation of Kinase A and the transphosphorylation of Spo0F was determined in the following assays. The Spo0F response regulator is the primary substrate for phosphorylation by the protein kinase, Kin A, involved in the sporulation process in bacteria. See D. Burbulys, K. A. Trach, J. A. Hoch, Cell, 64, 545-552 (1991). Spo0F and KinA were prepared from recombinant E. coli overexpressing the proteins (J. Cavanagh et al, Amino Acids, 6, 131-140 (1994) and references therein).
The following stock reagents were either prepared and used promptly or stored at the indicated temperature:
8×Salts: 2 M KCl (5 mL), 1 M MgCl2 (800 mL), 1 M CaCl2 (100 mL), 10 mg/mL phenylmethylsulfonyl fluoride (200 mL), 1 M dithioreitol (50 mL), 0.25 M Na2 EDTA (32 mL) and H2 O 3.82 mL (-20° C.)
5×Loading Dye: 0.5M TRIS-HCl, pH 6.8 (7.5 mL), 10% SDS (2 mL) 0.1% bromophenol blue (0.5 mL), 100% glycerol (3 mL) and 12.5 M 2-mercaptoethanol (0.3 mL)
1-1.3 mg/mL KinA: 15 mM TRIS-HCl, pH 8.0, 6 mM KCl; 4 mM 2-mercaptoethanol;40% glycerol (-20° C.)
1 mg/mL Spo0F: 17.5 mM TRIS-HCl, pH 8.0; 0.7 mM KCl; 0.7 mM MgCl2; 0.7 mM CaCl2; 5 mM 2-mercaptoethanol; 30% glycerol (-20° C.)
5% Stacking Gel: 40% 29:1 acrylamide:bis acrylamide (1.25 mL), 0.5 M TRIS-HCl, pH 6.8 (2.5 mL), 10% SDS (0.1 mL), D-H2 O (6.15 mL) 10% ammonium persulfate (100 mL) and TEMED (25 mL)
SDS Running Buffer: TRIS-BASE (3.02 g), glycine (14.4 g), SDS (1 g), D-H2 O (to 1 L)
The reaction mixture was prepared from 8×Salts (87 μL), 1M TRIS, pH 8 (118 μL), 50% glycerol (63 μL), Spo0F (14.1 μL) and KinA (7.0 μL). Microcentrifuge tubes were charged with the reaction mixture (18.5 μL) and a 1.0 mM solution of the test compound in 5% DMSO (18.5 μL), and incubated for 15 min on ice. 100 mM ATP solution (3.0 μl, containing 625 μCi [^32 P]ATP) was added, and the mixture left for 10 minutes at room temperature. The reaction was quenched with 5× loading dye (10 μL per tube) and the samples were loaded on a prepared 5% Stacking Gel, or stored on dry ice until ready for use. The prepared wells were filled with SDS Running Buffer, samples were loaded into the wells, and 80 volts were applied to the gel until the dye front reached the bottom of the stacking gel. The voltage was then increased to 250 volts until electrophoresis was complete. Radioactive bands in the gel corresponding to phosphorylated KinA and Spo0F were imaged and quantitated with a phosphoimager.
If either enzyme was inhibited (as evidenced by the absence of labelled protein in the developed gel), an IC50 was calculated by running the assay with a range of inhibitor concentrations from 1 to 500 μM. After electrophoresis of the reaction mixtures, percent inhibition was determined by measuring the concentration of radioactive phosphorus with a phosphoimager and calculating the values using a software program (BioRad Molecular Analyst).

`c1ccc(Oc2ccc(-c3nc4ccc(C5=NCCN5)cc4[nH]3)cc2)cc1` [Example 83] registered an IC50 (in µM) of 112.4.
`c1ccc(Oc2ccc(-c3nc4ccc(-c5nc6ccccc6[nH]5)cc4[nH]3)cc2)cc1` [Example 84] gave an IC50 (in µM) of 32.3.
As to `CC(C)(C)c1cc(-c2nc3ccc(C4=NCCN4)cc3[nH]2)c(O)c(C(C)(C)C)c1` [Example 85], under “in µM”, the IC50 came to 4.
Still for that read-out and setting: as for `CC(C)(C)c1cc(-c2nc3ccc(C4=NCCCN4)cc3[nH]2)c(O)c(C(C)(C)C)c1` [Example 86], the figure is 32; as for `CC(C)(C)c1cc(-c2nc3ccc(C4=NCCCCN4)cc3[nH]2)c(O)c(C(C)(C)C)c1` [Example 87], 29; as for `CC1(C)CN=C(c2ccc3nc(-c4cc(C(C)(C)C)cc(C(C)(C)C)c4O)[nH]c3c2)N1` [Example 88], 12.
Turning to `CC(C)(C)c1cc(-c2nc3ccc(C(=O)O)cc3[nH]2)c(O)c(C(C)(C)C)c1` [Example 89], the IC50 (read-out: IC50) came out at 86 µM.
`CC(C)(C)c1cc(-c2nc3ccc(N)cc3[nH]2)c(O)c(C(C)(C)C)c1` [Example 90]: the IC50 (in µM) was 152.
Take `CC(C)(C)c1cc(-c2nc3ccc(CN)cc3[nH]2)c(O)c(C(C)(C)C)c1` [Example 91]: under “in µM”, the IC50 amounted to 4.
